For test [1], the system named is MDCK cells. The source says:
This example describes a method using cross-electrode impedance mapping to quantify cell adhesion.
Ethylenediaminetetraacetic acid (EDTA) is applied to the cells. EDTA is a calcium chelator that removes Ca^2+ needed for integrin proteins to maintain cell adhesion.
FIG. 6b is a data plot showing mean normalized impedances for different regions of the cell culture over time as specified in the map 601. FIG. 6cc are histograms of the normalized impedance values before, during, and after a washout of EDTA across the array.

Test [2] concerns MDCK cells. Kind of test: Wound healing assay: electrochemical patterning and impedance mapping of regrowth. It is filed as cell-based, Canine. The settings on record: 1 μM, over the course of 72 hours; control culture took ~3 days to fill in the wound. The source says: This example describes a combined application of both the cross-electrode impedance mapping and cell patterning is a wound healing assay.
These assays gauge cell growth rate and metabolism and can be useful for screening drugs affecting these parameters. Compared to the electrochemical patterning described herein, other tools mechanically generate a wound in a cell culture via a mechanical scratch which is both difficult to control and limiting in terms of wound pattern.
In this example, a wound is made in MDCK cells and then the growth is mapped in real-time. […] These patterns were defined by applying electrode currents of −10 nA for 40 s versus a Ag/AgCl pseudo reference electrode. The regrowth of the culture was then measured using the impedance mapping method.

The structures appear in SMILES notation.

On to `O=C(O)CN(CCN(CC(=O)O)CC(=O)O)CC(=O)O` [EDTA, Ethylenediaminetetraacetic acid], for which the “time course over which the cells detach with EDTA applied” value in test [1] (5 mM EDTA application at t=~5 min) is given as around 50 min. The “time course over which the cells re-attach after EDTA washout” value in test [1] (EDTA washed out by adding normal culture media) is around 200 min.

`C=C1[C@@H](C)[C@H]2[C@H](Cc3ccccc3)NC(=O)[C@]23OC(=O)/C=C/[C@H](O)CCC[C@@H](C)C/C=C/[C@H]3[C@@H]1O` [cytochalasin B]: the “regrowth of the wound in the cell culture (normalized cross-electrode impedance maps)” value in test [2] was “very little growth”.
